Structures can show the parent of a compound that is named as a salt. Where two headings read alike, the source gives them in different places.
Experiments:
[1] = biological target: T1, LIMK1KD (Homo sapiens, UniProt P53667); assay: Differential (dynamic) scanning fluorimetry (DSF) assay, LIMK1KD; format: binding
T1 construct: His6 (N, cleaved yes); made in house; host or cells: baculovirus; Sf9 for virus, TriEx insect cells for expression

[2] = biological target: T2, LIMK2KD (Homo sapiens, UniProt P53671); assay: Differential (dynamic) scanning fluorimetry (DSF) assay, LIMK2KD; format: binding
T2 construct: The cDNA coding for LIMK2 residues 330 to 632 was PCR amplified; His6 (N, cleaved yes); made in house; host or cells: baculovirus; Sf9 for virus, TriEx insect cells for expression

[3] = 2 µM LIMK1KD, compound 10 µM, single shot
[4] = LIMK2KD, compound 10 µM, single shot
[5] = 2 µM LIMK1KD, compound 10 µM, single shot, read-out: TM Shift LIMK1 (K)
[6] = LIMK2KD, compound 10 µM, single shot, read-out: TM Shift LIMK2 (K)
[7] = LIMK2KD, compound 10 µM, single shot, 10 µM
[8] = read-out: TM Shift LIMK2 (K), LIMK2KD, compound 10 µM, single shot

T2 sequence (P53671 330-632): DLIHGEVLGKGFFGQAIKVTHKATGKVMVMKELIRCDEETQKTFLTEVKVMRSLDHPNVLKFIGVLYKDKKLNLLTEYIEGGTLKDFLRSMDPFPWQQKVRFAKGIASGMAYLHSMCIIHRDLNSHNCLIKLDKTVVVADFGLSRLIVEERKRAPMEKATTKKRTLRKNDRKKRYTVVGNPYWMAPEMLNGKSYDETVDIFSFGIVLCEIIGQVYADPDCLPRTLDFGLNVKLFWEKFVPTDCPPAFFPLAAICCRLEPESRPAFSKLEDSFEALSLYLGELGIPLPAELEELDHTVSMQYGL
T1 sequence (P53667 330-637): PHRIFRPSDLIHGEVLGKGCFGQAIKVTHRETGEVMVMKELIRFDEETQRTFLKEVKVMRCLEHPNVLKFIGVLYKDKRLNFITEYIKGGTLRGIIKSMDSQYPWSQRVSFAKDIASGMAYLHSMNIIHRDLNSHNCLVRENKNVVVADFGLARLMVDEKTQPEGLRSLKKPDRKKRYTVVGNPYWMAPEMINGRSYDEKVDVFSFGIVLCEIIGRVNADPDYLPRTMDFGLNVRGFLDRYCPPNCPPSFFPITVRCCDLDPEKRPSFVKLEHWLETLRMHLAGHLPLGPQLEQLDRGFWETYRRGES

Row | Molecule | TM Shift LIMK1 (K) [1, 3] [K] | TM Shift LIMK2 (K) [2, 4] [K] | ΔTm at 10 µM [1, 5] [°C] | ΔTm at 10 µM [2, 6] [°C] | further results
1 | Nc1nc(N)c2nc(-c3cccc(O)c3)c(-c3cccc(O)c3)nc2n1 [TG100-115] | 1.3 | 2.4 | – | – | –
2 | Nc1ncnc2c1c(-c1cnc3[nH]ccc3c1)nn2C1CCCC1 [PP121] | 3.6 | 2.7 | – | – | –
3 | O=C(NC1CCNCC1)c1[nH]ncc1NC(=O)c1c(Cl)cccc1Cl [AT7519] | – | – | 1.2 | 1.3 | –
4 | NC(=O)c1cnc(N[C@@H]2CCCC[C@@H]2N)nc1Nc1cccc(-n2nccn2)c1 [PRT062607 (P505-15, BIIB057) HCl] | – | – | -0.6 | -1 | –
5 | NC(=O)c1ncn([C@@H]2O[C@H](CO)[C@@H](O)[C@H]2O)c1N [Acadesine] | – | – | 0.7 | 2.1 | –
6 | Oc1cc(O)cc(/C=C/c2ccc(O)c(O)c2)c1 [Piceatannol] | – | – | -0.6 | 0.8 | –
7 | CCn1c2ccccc2c2cc(Nc3ccnc(NCCCN4CCOCC4)n3)ccc21 [EHop-016] | -0.1 | -0.7 | – | – | –
8 | CN[C@@H]1C[C@H]2O[C@@](C)([C@@H]1OC)n1c3ccccc3c3c4c(c5c6ccccc6n2c5c31)C(=O)NC4 [Staurosporine] | – | – | 5.1 | – | ΔTm at 10 µM ([2]; read-out: TM Shift LIMK2 (K)): 3.3 °C
9 | Nc1nccc(-c2c(-c3ccc(F)cc3)ncn2C2CCCCC2)n1 [PF-670462] | 1.5 | -0.2 | – | – | –
10 | CC(C)n1nc(-c2ccc3oc(N)nc3c2)c2c(N)ncnc21 [INK 128 (MLN0128)] | – | – | 1.4 | 0.3 | –
11 | C[C@@H]1COCCN1c1cc(C2(S(C)(=O)=O)CC2)nc(-c2cccc3[nH]ccc23)n1 [AZ20] | 0.8 | -0.8 | – | – | –
12 | CN(C)C[C@@H]1CCn2cc(c3ccccc32)C2=C(C(=O)NC2=O)c2cn(c3ccccc23)CCO1 [Ruboxistaurin] | – | – | 1 | 0.4 | –
13 | CCN(CC)CCNC(=O)c1c(C)[nH]c(/C=C2\C(=O)Nc3ccc(F)cc32)c1C [Sunitinib Malate] | 1.6 | – | – | – | TM Shift LIMK2 (K) [2, 7]: 0.5 K
14 | COC[C@H]1OC(=O)c2coc3c2[C@@]1(C)C1=C(C3=O)[C@@H]2CCC(=O)[C@@]2(C)C[C@H]1OC(C)=O [Wortmannin] | – | – | 0.2 | 0.1 | –
15 | CN1CCC(CNc2ccc3ncc(-c4cccc(OC(F)(F)F)c4)n3n2)CC1 [SGI-1776 free base] | 1.7 | 1.4 | – | – | –
16 | Cc1c(CN2CCN(C(=O)[C@H](C)O)CC2)sc2c(N3CCOCC3)nc(-c3cnc(N)nc3)nc12 [GDC-0980 (RG7422)] | 1.4 | 0.6 | – | – | –
17 | N#CC[C@H](C1CCCC1)n1cc(-c2ncnc3[nH]ccc23)cn1 [Ruxolitinib (INCB018424), Ruxolitinib] | – | – | 1.6 | 2.6 | –
18 | AZ23 | 3.6 | 0.8 | – | – | –
19 | Cl.Cl.O=S(=O)(NCCNC/C=C/c1ccc(Br)cc1)c1cccc2cnccc12 [H 89 2HCl] | 1.8 | 3.9 | – | – | –
20 | CCCCCCCCc1ccc(CCC(N)(CO)CO)cc1 [Fingolimod (FTY720) HCl, Fingolimod] | – | – | – | – | ΔTm at 10 µM ([1]; read-out: TM Shift LIMK1 (K), 2 µM LIMK1KD, compound 10 µM, single shot): -0.7 °C; ΔTm at 10 µM [2, 8]: 1.1 °C
21 | Cc1cnc(Nc2ccc(OCCN3CCCC3)cc2)nc1Nc1cccc(S(=O)(=O)NC(C)(C)C)c1 [Fedratinib] | – | – | 3.2 | 1.4 | –

Row | Molecule | TM Shift LIMK1 (K) [1, 3] [K] | TM Shift LIMK2 (K) [2, 4] [K] | ΔTm at 10 µM [1, 5] [°C] | ΔTm at 10 µM [2, 6] [°C] | further results
22 | CC(C)(C)c1cnc(CSc2cnc(NC(=O)C3CCNCC3)s2)o1 [SNS-032 (BMS-387032)] | – | – | 0.1 | -0.3 | –
23 | O=C1c2ccc(Nc3ccc(F)cc3F)cc2CCc2ccc(OC[C@H](O)CO)cc21 [Skepinone-L] | – | – | -0.5 | -0.6 | –
24 | C[C@@H](N)[C@H]1CC[C@H](C(=O)Nc2ccncc2)CC1.Cl.Cl [Y-27632 2HCl] | -0.7 | 0.9 | – | – | –
25 | COc1ccc(S(=O)(=O)N(C(C)=O)c2ccccc2/C=C/c2cc[n+]([O-])cc2)cc1 [HMN-214] | – | – | 2.5 | 1 | –
26 | O=c1cc(N2CCOCC2)oc2c(-c3cccc4c3sc3ccccc34)cccc12 [NU7441 (KU-57788)] | 0.5 | -0.9 | – | – | –
27 | CNC(=O)CN1CCC(Oc2cc3c(Nc4cccc(Cl)c4F)ncnc3cc2OC)CC1 [AZD8931 (Sapitinib), Sapitinib] | – | – | 0.9 | 0.6 | –
28 | COc1cc2ncnc(Nc3ccc(F)c(Cl)c3)c2cc1OCCCN1CCOCC1 [Gefitinib (ZD1839), Gefitinib] | – | – | -0.6 | – | ΔTm at 10 µM [2, 8]: 0.5 °C
29 | COc1cc2nccc(Oc3ccc(NC(=O)C4(C(=O)Nc5ccc(F)cc5)CC4)cc3)c2cc1OC [Cabozantinib (XL184, BMS-907351), Cabozantinib] | – | – | 2.5 | 0.6 | –
30 | CS(=O)(=O)N1CCc2c(-c3cnc(N)nc3)nc(N3CCOCC3)nc21 [CH5132799] | – | – | 1.3 | 0.1 | –
31 | COc1cc(F)c(F)c(Nc2ccc(I)cc2F)c1NS(=O)(=O)C1(C[C@H](O)CO)CC1 [Refametinib] | – | – | -1 | 1.1 | –
32 | COc1cc2ncc(-c3ccccc3)nc2cc1OC [Tyrphostin AG 1296] | 0.0 | -1.3 | – | – | –
33 | CCc1cncnc1N1CCN(Cc2nc3ccc(C(F)(F)F)cc3[nH]2)CC1 [PF-4708671] | 0.4 | – | – | – | TM Shift LIMK2 (K) [2, 7]: 3.5 K
34 | COc1ccc(-c2ccc3c(N4CCOCC4)nc(N4C[C@@H](C)O[C@@H](C)C4)nc3n2)cc1CO [KU-0063794] | – | – | 0.3 | 2 | –
35 | COc1cc2nccc(Oc3ccc(NC(=O)NC4CC4)c(Cl)c3)c2cc1C(N)=O [Lenvatinib (E7080), Lenvatinib] | – | – | 0.7 | 0.1 | –
36 | COc1cc(Nc2c(C#N)cnc3cc(OCCCN4CCN(C)CC4)c(OC)cc23)c(Cl)cc1Cl [Bosutinib (SKI-606), Bosutinib] | – | – | 0.1 | 1.3 | –
37 | CS(=O)(=O)O.Cn1cc(C2=C(c3cn(CCCSC(=N)N)c4ccccc34)C(=O)NC2=O)c2ccccc21 [Ro 31-8220 Mesylate] | 1.6 | 1.2 | – | – | –
38 | CNC(=O)c1c(F)cccc1Nc1nc(Nc2cc3c(cc2OC)CCN3C(=O)CN(C)C)nc2[nH]ccc12 [GSK1838705A] | 0.4 | 1.0 | – | – | –
39 | N#CC1(c2ccc(NC(=O)c3cccnc3NCc3ccncc3)cc2)CCCC1 [Apatinib] | – | – | 0.2 | 3.8 | –
40 | CCc1cncnc1N1CCN(Cc2nc3ccc(C(F)(F)F)cc3[nH]2)CC1 [PF-04708671] | 1.6 | – | – | – | TM Shift LIMK2 (K) [2, 7]: 1.7 K
41 | NC(=O)Nc1sc(-c2ccc(F)cc2)cc1C(N)=O [TPCA-1] | 2.8 | 3.6 | – | – | –
42 | Cn1c(Nc2ccc(C(F)(F)F)cc2)nc2cc(Oc3ccnc(-c4ncc(C(F)(F)F)[nH]4)c3)ccc21 [RAF265 (CHIR-265)] | – | – | 1.1 | 5.1 | –

Second part, led by results:

Row | TM Shift LIMK1 (K) [1, 3] [K] | TM Shift LIMK2 (K) [2, 4] [K] | ΔTm at 10 µM [1, 5] [°C] | ΔTm at 10 µM [2, 6] [°C] | Molecule | further results
43 | – | – | -0.1 | 0 | CCn1c(-c2nonc2N)nc2c(C#CC(C)(C)O)ncc(OC[C@H]3CCCNC3)c21 [GSK690693] | –
44 | – | – | 1.3 | -0.4 | Cc1[nH]c(/C=C2\C(=O)Nc3ccc(S(=O)(=O)Cc4c(Cl)cccc4Cl)cc32)c(C)c1C(=O)N1CCC[C@@H]1CN1CCCC1 [PHA-665752] | –
45 | 1.2 | – | – | – | N#CCNC(=O)c1ccc(-c2ccnc(Nc3ccc(N4CCOCC4)cc3)n2)cc1 [CYT387] | TM Shift LIMK2 (K) [2, 7]: 0.8 K
46 | – | – | 0.7 | 1.3 | Cn1cc(C2=C(c3ccc(Cl)cc3Cl)C(=O)NC2=O)c2ccccc21 [SB216763] | –
47 | – | – | 4 | 1.6 | O=C(Nc1ccc(-c2ccnc(Nc3ccc(N4CCOCC4)cc3)n2)cc1)C1CCCN1 (stereo not shown) [XL019] | –
48 | – | – | 0.3 | 0.2 | Cc1cc(C(=O)NOCCO)c(Nc2ccc(I)cc2F)n(C)c1=O [AZD8330] | –
49 | – | – | 4.7 | 0.6 | Cc1cc(Nc2nc(N[C@@H](C)c3ncc(F)cn3)ncc2Cl)n[nH]1 [AZD1480] | –
50 | 1.4 | 0.7 | – | – | Nc1nc(N)c2nc(-c3cccc(O)c3)cnc2n1 [TG100713] | –
51 | 0.7 | 2.3 | – | – | O=C1NC(=O)C(=Cc2ccc(-c3ccc(F)cc3)o2)S1 (stereo in doubt) [CAY10505] | –
52 | – | – | 0.9 | 0.8 | COc1ccc(-c2ccc3c(N4CCOC[C@@H]4C)nc(N4CCOC[C@@H]4C)nc3n2)cc1CO [AZD8055] | –
53 | – | – | 1.8 | 0.3 | CCn1c(C(=O)N(C2CC2)C2CC2)cc2c3c(ncn3C)c(Nc3cc(C)n(C)n3)nc21 [BMS-911543] | –
54 | -1.0 | 1.2 | – | – | Cc1cc(C)nc(NS(=O)(=O)c2ccc(NC(=S)NC(=O)COc3ccc(Br)cc3Cl)cc2)n1 [ZCL278] | –
55 | – | – | 0.7 | – | Cc1c(NC(=O)OC[C@@H]2COCCN2)cn2ncnc(Nc3ccc4c(cnn4Cc4cccc(F)c4)c3)c12 [BMS-599626] | TM Shift LIMK2 (K) [2, 7]: -0.4 K; TM Shift LIMK2 (K) ([2]; LIMK2KD, compound 10 µM, single shot, listed as AC480 (BMS-599626), 10 µM): 0.9 K
56 | – | – | 3.8 | 3.1 | C=CC(=O)Nc1cccc(Nc2nc(Nc3ccc(OCCOC)cc3)ncc2F)c1 [AVL-292] | –
57 | – | – | -0.2 | 0 | CNC(=O)c1ccc(-c2cnc3ncc(Cc4ccc5ncccc5c4)n3n2)cc1F [INCB28060] | –
